Like-named read-outs stand apart in the source and are kept apart here.
Columns and labels:
human HDAC8 = human HDAC8 (Homo sapiens (Human), UniProt Q9BY41); assay: HDAC8 inhibition assay (modified FLUOR DE LYS, 384-well); format: biochemical; settings: 200 μM substrate BML-KI178, 3 h pre-incubation, read-out: HDAC8 IC50
Procedure: (§1) The histone deacetylase activities of HDAC1, HDAC2, HDAC3, HDAC6, and HDAC8 were measured in modified FLUOR DE LYS assays in 384-well format. In this assay, HDAC enzymes are initially incubated with an F-acetyl (or -trifluoroacetyl)-L-lysine-containing substrate with a C-terminal amide having aminomethylcoumarin as the amine component. HDACs cleave the F-acetyl group, rendering the resulting product susceptible to AMC cleavage by trypsin. The released AMC is then detected by its fluorescence. […] All steps were performed at room temperature (23° C.). The assay was performed by pre-incubating serial dilutions of test compounds with the target HDAC prior to initiation with substrate. […] Final conditions used for each assay were: 1. […] The reactions were stopped and developed by addition of 30 ul of HDAC developer solution containing a saturating level of HDAC inhibitor as follows: 1. […] For data analysis, background subtracted product (fluorescence) vs. time data for each inhibitor concentration was fitted using a 4-parameter fit.

[1] = target: T1, human HDAC3/SMRT heterodimer (Homo sapiens (Human), UniProt O15379)
HDAC6 [2] = target: T2, HDAC6 (Homo sapiens (Human), UniProt Q9UBN7)
Procedure: as §1

human HDAC2 = human HDAC2 (Homo sapiens (Human), UniProt Q92769); assay: HDAC2 inhibition assay (modified FLUOR DE LYS, 384-well); format: biochemical; settings: 40 μM substrate BML-KI104, 3 h pre-incubation, read-out: HDAC2 IC50
human HDAC1 [3] = target: T3, human HDAC1 (Homo sapiens (Human), UniProt Q13547)
KARN cells (Jurkat 2C4) [4] = settings: luciferase induction, 2 μM SAHA = 100%
Procedure: KARN Assay Cell Maintenance
(§2) KARN cells (Jurkat 2C4) were licensed from the laboratory of Dr. John Karn, Case Western Reserve University, School of Medicine. […] An atmosphere of 5% CO2 and 90% humidity was used for all culture work.
(§3) These flasks were returned to the incubator.
(§4) The cells were gently resuspended in assay media (30 ml) and pelleted again. […] The cells were counted using the ViCell (Beckman Coulter) and diluted as necessary. […] The plates were covered and returned to the incubator prior to compound addition.
(§5) The reference compounds, DMSO and SAHA were then added to the compound plate. […] The final high concentration for SAHA and the test compounds in the assays was 40 μM. The final DMSO concentration in all wells was 0.4%. The minimal induction reference compound used was DMSO and the maximal induction reference compound used was SAHA (2 μM final concentration in the assay).
(§6) Day 3: The luciferase detection reagent was prepared by transferring the contents of one bottle of Steady-Glo buffer to one bottle of Steady-Glo aubstrate (Steady-Glo Luciferase Assay System, Promega, catalog number E2520), followed by gently mixing until the substrate was thoroughly dissolved and the solution was equilibrated to room temperature. […] The Steady-Glo Reagent was added to the plates (30 μl/well), which were then covered with a black lid and incubated for 10 minutes at room temperature. The plates were then read for luminescence on an Envision (Perkin Elmer) using the ultrasensitive mode (US LUM), 0.1 counts per second and 384-well aperture. Luminescence counts in the DMSO reference wells were considered as 0% induction, while those in the 2 μM SAHA reference wells were considered as 100% induction. Dose response curves were plotted as test compound concentration (X-axis) vs. percent activation (Y-axis) using a 4-parameter fit based on the Levenberg-Marquardt algorithm.

[5] = target: T1, human HDAC3/SMRT heterodimer; assay: biochemical
human HDAC1 [6] = target: T3, human HDAC1; assay: biochemical
HDAC6 [7] = target: T2, HDAC6; assay: biochemical
Procedure: as §1

KARN cells (Jurkat 2C4) [8] = assay: cells; settings: Homo sapiens
Procedure: KARN Assay Cell Maintenance
as §2, §3, §4, §5, §6

[9] = read-out: Karn EC50 nM 0.1% NHS, 0.1% normal human serum
[10] = read-out: Karn EC50 nM 5% NHS, 5% normal human serum
[11] = read-out: Karn EC50 nM 0.1% NHS, 0.1% normal human serum, luciferase induction, 2 μM SAHA = 100%
[12] = read-out: Karn EC50 nM 5% NHS, 5% normal human serum, luciferase induction, 2 μM SAHA = 100%
[13] = read-out: Karn EC50 nM 0.1% NHS

T2 sequence (Q9UBN7 whole entry): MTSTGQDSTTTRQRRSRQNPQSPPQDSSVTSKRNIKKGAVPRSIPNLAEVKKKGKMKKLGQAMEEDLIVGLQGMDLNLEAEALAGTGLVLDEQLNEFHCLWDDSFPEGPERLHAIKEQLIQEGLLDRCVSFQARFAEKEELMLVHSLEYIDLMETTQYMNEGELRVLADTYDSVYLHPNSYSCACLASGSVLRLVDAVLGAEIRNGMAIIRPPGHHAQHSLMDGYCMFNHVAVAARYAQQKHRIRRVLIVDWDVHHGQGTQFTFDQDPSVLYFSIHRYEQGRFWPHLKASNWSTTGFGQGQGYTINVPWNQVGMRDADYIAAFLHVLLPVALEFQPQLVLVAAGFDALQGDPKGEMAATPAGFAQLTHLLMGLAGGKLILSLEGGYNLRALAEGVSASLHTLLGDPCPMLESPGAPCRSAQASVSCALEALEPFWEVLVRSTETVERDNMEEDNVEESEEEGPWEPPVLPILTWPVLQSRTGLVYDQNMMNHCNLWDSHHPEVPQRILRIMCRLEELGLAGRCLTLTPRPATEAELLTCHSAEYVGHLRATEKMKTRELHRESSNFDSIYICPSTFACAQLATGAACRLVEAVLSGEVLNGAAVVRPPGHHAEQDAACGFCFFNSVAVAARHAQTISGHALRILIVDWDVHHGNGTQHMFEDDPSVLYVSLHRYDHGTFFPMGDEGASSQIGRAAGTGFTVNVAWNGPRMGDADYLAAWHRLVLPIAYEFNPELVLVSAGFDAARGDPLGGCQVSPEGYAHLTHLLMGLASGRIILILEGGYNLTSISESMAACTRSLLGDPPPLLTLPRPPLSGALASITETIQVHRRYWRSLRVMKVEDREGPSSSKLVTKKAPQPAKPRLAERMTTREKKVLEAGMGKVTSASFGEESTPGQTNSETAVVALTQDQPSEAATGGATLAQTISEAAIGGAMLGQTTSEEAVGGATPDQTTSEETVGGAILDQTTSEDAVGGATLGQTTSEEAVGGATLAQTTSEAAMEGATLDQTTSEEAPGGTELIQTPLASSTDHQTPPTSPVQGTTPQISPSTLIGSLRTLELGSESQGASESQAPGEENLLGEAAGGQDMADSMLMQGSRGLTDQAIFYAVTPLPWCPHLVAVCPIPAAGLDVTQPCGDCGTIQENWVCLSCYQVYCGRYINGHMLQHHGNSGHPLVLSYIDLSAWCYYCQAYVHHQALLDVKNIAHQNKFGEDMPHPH
T3 sequence (Q13547 whole entry): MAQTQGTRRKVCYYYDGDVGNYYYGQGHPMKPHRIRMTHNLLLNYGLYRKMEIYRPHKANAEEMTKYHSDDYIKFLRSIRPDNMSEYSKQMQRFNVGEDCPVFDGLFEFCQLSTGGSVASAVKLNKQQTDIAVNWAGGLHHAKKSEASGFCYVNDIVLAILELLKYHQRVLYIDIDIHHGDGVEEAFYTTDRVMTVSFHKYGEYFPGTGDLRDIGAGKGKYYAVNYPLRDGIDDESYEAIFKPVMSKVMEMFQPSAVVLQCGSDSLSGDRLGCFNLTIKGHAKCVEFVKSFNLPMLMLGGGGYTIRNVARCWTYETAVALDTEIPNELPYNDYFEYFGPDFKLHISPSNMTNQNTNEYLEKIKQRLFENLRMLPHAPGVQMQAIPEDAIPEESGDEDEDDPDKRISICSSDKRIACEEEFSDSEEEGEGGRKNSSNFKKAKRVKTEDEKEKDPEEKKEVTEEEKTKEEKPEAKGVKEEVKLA
human HDAC8, sequence (Q9BY41 whole entry): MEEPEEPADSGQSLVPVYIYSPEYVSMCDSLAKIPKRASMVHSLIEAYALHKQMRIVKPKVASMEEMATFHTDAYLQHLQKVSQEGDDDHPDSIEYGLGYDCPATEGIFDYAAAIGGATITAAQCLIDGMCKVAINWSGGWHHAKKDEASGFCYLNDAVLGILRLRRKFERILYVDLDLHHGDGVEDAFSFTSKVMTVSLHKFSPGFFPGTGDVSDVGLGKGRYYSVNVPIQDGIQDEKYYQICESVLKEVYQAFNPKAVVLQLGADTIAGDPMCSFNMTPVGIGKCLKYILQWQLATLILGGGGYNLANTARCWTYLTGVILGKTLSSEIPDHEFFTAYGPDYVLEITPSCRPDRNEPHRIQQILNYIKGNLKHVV
human HDAC2, sequence (Q92769 whole entry): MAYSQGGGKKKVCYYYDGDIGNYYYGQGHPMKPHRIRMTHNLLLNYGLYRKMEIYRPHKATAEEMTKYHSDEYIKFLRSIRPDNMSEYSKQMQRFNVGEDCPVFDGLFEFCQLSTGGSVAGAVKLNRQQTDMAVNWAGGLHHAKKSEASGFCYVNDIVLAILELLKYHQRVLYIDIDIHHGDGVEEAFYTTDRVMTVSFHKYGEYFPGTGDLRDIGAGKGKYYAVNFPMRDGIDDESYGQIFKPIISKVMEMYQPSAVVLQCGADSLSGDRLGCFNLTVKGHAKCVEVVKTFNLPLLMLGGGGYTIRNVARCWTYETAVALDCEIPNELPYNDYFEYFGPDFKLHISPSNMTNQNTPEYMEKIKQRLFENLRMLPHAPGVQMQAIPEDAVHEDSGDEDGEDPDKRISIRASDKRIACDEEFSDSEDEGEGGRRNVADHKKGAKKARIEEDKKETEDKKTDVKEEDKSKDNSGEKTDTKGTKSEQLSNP
T1 sequence (O15379 whole entry): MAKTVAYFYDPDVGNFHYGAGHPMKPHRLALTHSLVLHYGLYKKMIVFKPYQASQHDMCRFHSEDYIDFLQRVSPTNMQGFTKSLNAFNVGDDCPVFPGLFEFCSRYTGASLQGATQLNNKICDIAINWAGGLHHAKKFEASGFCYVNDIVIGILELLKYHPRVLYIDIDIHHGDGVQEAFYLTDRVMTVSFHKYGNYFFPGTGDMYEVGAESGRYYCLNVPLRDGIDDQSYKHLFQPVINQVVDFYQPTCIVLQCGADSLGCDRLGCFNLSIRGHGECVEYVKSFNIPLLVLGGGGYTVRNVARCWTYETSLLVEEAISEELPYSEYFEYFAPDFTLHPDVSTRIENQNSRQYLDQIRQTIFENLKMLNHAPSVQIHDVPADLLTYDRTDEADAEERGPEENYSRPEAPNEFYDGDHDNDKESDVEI
T1 sequence (Q9Y618 1-899 partner): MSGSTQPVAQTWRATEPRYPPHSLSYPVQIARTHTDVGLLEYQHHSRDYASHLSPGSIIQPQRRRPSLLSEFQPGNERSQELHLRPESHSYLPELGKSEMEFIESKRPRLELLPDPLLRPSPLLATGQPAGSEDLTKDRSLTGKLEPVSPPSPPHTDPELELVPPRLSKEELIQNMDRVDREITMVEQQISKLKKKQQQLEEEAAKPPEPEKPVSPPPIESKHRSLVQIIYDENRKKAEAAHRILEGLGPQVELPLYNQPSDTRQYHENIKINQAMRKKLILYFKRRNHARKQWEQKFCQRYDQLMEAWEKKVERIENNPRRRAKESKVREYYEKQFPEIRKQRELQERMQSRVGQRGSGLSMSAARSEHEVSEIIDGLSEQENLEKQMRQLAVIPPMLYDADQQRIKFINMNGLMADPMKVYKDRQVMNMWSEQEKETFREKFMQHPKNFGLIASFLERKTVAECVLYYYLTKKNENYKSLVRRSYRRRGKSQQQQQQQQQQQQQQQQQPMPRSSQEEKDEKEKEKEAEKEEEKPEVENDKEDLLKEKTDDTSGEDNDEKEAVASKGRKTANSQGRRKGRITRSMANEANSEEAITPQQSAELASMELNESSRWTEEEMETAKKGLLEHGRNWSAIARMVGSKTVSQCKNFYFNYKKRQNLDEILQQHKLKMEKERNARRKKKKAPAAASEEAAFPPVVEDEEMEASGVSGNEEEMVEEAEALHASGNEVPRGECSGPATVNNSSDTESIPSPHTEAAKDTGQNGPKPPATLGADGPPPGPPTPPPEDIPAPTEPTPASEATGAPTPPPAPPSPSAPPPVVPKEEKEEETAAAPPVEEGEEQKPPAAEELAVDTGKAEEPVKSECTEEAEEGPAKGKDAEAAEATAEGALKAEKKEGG

Row | Structure (SMILES) | IC50 (human HDAC8; […] enzyme) [nM] | IC50 [1] [nM] | IC50 (HDAC6 [2]) [nM] | IC50 (human HDAC2; […] enzyme) [nM] | IC50 (human HDAC1 [3]) [nM] | EC50 (KARN cells (Jurkat 2C4) [4]; [9]) [nM] | EC50 (KARN cells (Jurkat 2C4) [4]; [10]) [nM] | IC50 (human HDAC8; […] nM enzyme) [nM] | IC50 (human HDAC2; […] nM enzyme) [nM] | IC50 [5] [nM] | IC50 (human HDAC1 [6]) [nM] | IC50 (HDAC6 [7]) [nM] | EC50 (KARN cells (Jurkat 2C4) [8]; [11]) [nM] | EC50 (KARN cells (Jurkat 2C4) [8]; [12]) [nM] | EC50 (KARN cells (Jurkat 2C4) [8]; [13]) [nM] | EC50 (KARN cells (Jurkat 2C4) [8]; read-out: Karn EC50 nM 5% NHS) [nM]
1 | COc1cc2nc(C)ccc2cc1-c1cnc([C@H](CCCCCC(=O)c2ncco2)NC(=O)C2COCCO2)[nH]1 (stereo partly drawn) [Example 174, N-[(1S)-1-[5-(7-methoxy-2-methylquinolin-6-yl)-1H-imidazol-2-yl]-7-(1,3-oxazol-2-yl)-7-oxoheptyl]-1,4-dioxane-2-carboxamide] | 110 | 0.54 | > 900 | 3.7 | 1.4 | 37 | 80 | – | – | – | – | – | – | – | – | –
2 | Cc1ccc2cc(-c3cnc(C(CCCCCC(=O)c4ncco4)NC(=O)[C@H]4CC45CCN(C)CC5)o3)ccc2n1 (stereo partly drawn) [Example 111, (1S)-6-methyl-N-(1-(5-(2-methylquinolin-6-yl)oxazol-2-yl)-7-(oxazol-2-yl)-7-oxoheptyl)-6-azaspiro[2.5]octane-1-carboxamide] | 520 | 1.4 | 430 | 5.2 | 0.76 | 70 | 48 | – | – | – | – | – | – | – | – | –
3 | Cc1ccc2cc(-c3cnc([C@H](CCCCCC(=O)c4ncco4)NC(=O)[C@H]4CC45CCN(C)CC5)o3)ccc2n1 [Example 109, (S)-6-methyl-N-((S)-1-(5-(2-methylquinolin-6-yl)oxazol-2-yl)-7-(oxazol-2-yl)-7-oxoheptyl)-6-azaspiro[2.5]octane-1-carboxamide] | – | – | – | – | – | 1700 | 2500 | 5000 | 39 | 7.5 | 7.5 | 23000 | – | – | – | –
4 | CN1CC(C(=O)N[C@@H](CCCCCC(=O)c2ncco2)c2[nH]c(-c3ccc(F)cc3)nc2Cl)C1 [Example 101, (S)-N-(1-(4-chloro-2-(4-fluorophenyl)-1H-imidazol-5-yl)-7-(oxazol-2-yl)-7-oxoheptyl)-1-methylazetidine-3-carboxamide] | – | – | – | – | – | – | – | 340 | 1.5 | 1.5 | 1.5 | ≥ 45000 | 27 | 22 | – | –
5 | Cc1ccc2cc(-c3cn(C)c([C@@H](N)CCCCCC(=O)c4ncco4)n3)ccc2n1 [Example 29, (S)-7-amino-7-(1-methyl-4-(2-methylquinolin-6-yl)-1H-imidazol-2-yl)-1-(oxazol-2-yl)heptan-1-one] | – | – | – | – | – | – | – | 20000 | 63 | 18 | 15 | 5160 | 1800 | 1800 | – | –
6 | COC(=O)N[C@@H](CCCCCC(=O)c1ncco1)c1ncc(-c2cc3ccc(C)nc3cc2OC)[nH]1 [Example 86, (S)-methyl (1-(5-(7-methoxy-2-methylquinolin-6-yl)-1H-imidazol-2-yl)-7-(oxazol-2-yl)-7-oxoheptyl)carbamate] | – | – | – | – | – | – | – | 160 | 9.9 | 1.5 | 2 | 40 | 80 | 160 | – | –
7 | CN[C@@H](CCCCCC(=O)c1ncco1)c1ncc(-c2cc3ccc(=O)n(C)c3cc2OC)[nH]1 [Example 76, (S)-7-methoxy-1-methyl-6-(2-(1-(methylamino)-7-(oxazol-2-yl)-7-oxoheptyl)-1H-imidazol-5-yl)quinolin-2(1H)-one] | – | – | – | – | – | – | – | > 900 | 6.7 | 2.7 | 2.2 | > 900 | 200 | 220 | – | –
8 | O=C1CC[C@@](CCCCCC(=O)c2ccon2)(c2nc(-c3ccccc3F)c[nH]2)N1 [Example 69, (S)-5-(4-(2-fluorophenyl)-1H-imidazol-2-yl)-5-(6-(isoxazol-3-yl)-6-oxohexyl)pyrrolidin-2-one] | – | – | – | – | – | – | – | 210 | 4.2 | 0.79 | 0.92 | > 900 | 96 | 260 | – | –
9 | CCn1ccc2cc(-c3cnc([C@H](CCCCCC(=O)c4ccon4)NC(=O)CN(C)C)[nH]3)c(OC)cc2c1=O [Example 94, (S)-2-(dimethylamino)-N-(1-(5-(2-ethyl-7-methoxy-1-oxo-1,2-dihydroisoquinolin-6-yl)-1H-imidazol-2-yl)-7-(isoxazol-3-yl)-7-oxoheptyl)acetamide] | – | – | – | – | – | – | – | 5.2 | 1 | 0.24 | 0.26 | 20000 | 3.8 | 8.8 | – | –
10 | COc1cc2nc(C)ccc2cc1-c1cnc([C@H](CCCCCC(=O)c2ncco2)NC(=O)C2CN(C)C2)[nH]1 [Example 99, (S)-N-(1-(5-(7-methoxy-2-methylquinolin-6-yl)-1H-imidazol-2-yl)-7-(oxazol-2-yl)-7-oxoheptyl)-1-methylazetidine-3-carboxamide] | – | – | – | – | – | – | – | 56 | 2.6 | 0.47 | 0.3 | 1300 | – | – | 77 | 73
11 | Cc1ccc2cc(-c3cnc([C@H](CCCCCC(=O)c4ncco4)N4CCOCC4)[nH]3)ccc2n1 [Example 83, (S)-7-(5-(2-methylquinolin-6-yl)-1H-imidazol-2-yl)-7-morpholino-1-(oxazol-2-yl)heptan-1-one] | – | – | – | – | – | – | – | 12000 | 62 | 31 | 14 | ≥ 45000 | 3400 | 4200 | – | –
12 | COc1cc2nc(C)ccc2cc1-c1cnc([C@H](CCCCCC(=O)c2ncco2)NC(=O)CN(C)C)[nH]1 [Example 89, (S)-2-(dimethylamino)-N-(1-(5-(7-methoxy-2-methylquinolin-6-yl)-1H-imidazol-2-yl)-7-(oxazol-2-yl)-7-oxoheptyl)acetamide] | – | – | – | – | – | – | – | 69 | 3.4 | 1.5 | 0.8 | 1700 | – | – | 13 | 32
13 | O=C(CCCCC[C@H](NC(=O)c1cncs1)c1[nH]c(-c2ccc(F)cc2)nc1Cl)c1ncco1 [Example 88, (S)-N-(1-(4-chloro-2-(4-fluorophenyl)-1H-imidazol-5-yl)-7-(oxazol-2-yl)-7-oxoheptyl)thiazole-5-carboxamide] | – | – | – | – | – | – | – | 61 | 1.4 | 0.37 | 0.22 | ≥ 45000 | 25 | 380 | – | –
14 | Cc1ccc2cc(-c3cnc([C@H](CCCCCC(=O)c4ncco4)NC(=O)C4=NOC5(CCN(C)CC5)C4)o3)ccc2n1 [Example 116, (S)-8-methyl-N-(1-(5-(2-methylquinolin-6-yl)oxazol-2-yl)-7-(oxazol-2-yl)-7-oxoheptyl)-1-oxa-2,8-diazaspiro[4.5]dec-2-ene-3-carboxamide] | – | – | – | – | – | – | – | 250 | 9.7 | 1.5 | 4.8 | 4100 | 95 | 120 | – | –
